Among the data in US6140360A, “Antifungal agent” (TOA Gosei Co., Ltd., priority 1996, dated 2000) are MIC, ED50 and Solubility values, retold here.

≈ marks a conversion by molar mass, not a printed value. Where two headings read alike, the source gives them in different places.

Data set [1] concerns Candida albicans. Nature of the data set: in vitro antifungal activity (MIC). The class given is cell-based. How it is done: Using Candida albicans, Aspergillus niger, Aspergillus fumigatus, and Cryptococcus neoformans as test fungi, in vitro antifungal activities were determined to confirm the antifungal activities of cryptoporic acids A, B, and D. The test method and the results are shown below.
The fungal strains used for this test were standard strains provided by Teikyo University, Institute of Medical Mycology. Drug sensitivity was measured using Yeast Morphology Agar (Difco) as media.
The test fungi were spread over slant made of a potato dextrose agar medium (NissuiSeiyaku) and cultured at 30° C. for one day (Candida, Cryptococcus) or four days (Aspergillus niger, Aspergillus neoformans). After culturing, fungi on the slant were washed away with sterile physiological saline supplemented with 0.1% Tween 80. The solution was passed through a filter with 15 μm pores. The fungi were counted on a hemocytometer and adjusted to 10^5 CFU/ml to serve as an inoculation solution. A 0.02 ml portion of this solution was inoculated into Yeast Morphology Agar containing test agents by two-fold serial dilution and cultured at 30° C. for 1 or 4 days.
Antifungal effect was judged with naked eyes. Concentrations at which evident inhibition of growth was observed compared with control media containing no drug were taken as MIC values.
Candida albicans, Aspergillus niger, Aspergillus fumigatus, and Cryptococcus neoformans were used as test fungi. The test for in vitro antifungal activity was conducted in the same manner as in 1 above to confirm antifungal activity.
3. In vitro antifungal activities of cryptoporic acid derivatives represented by formula 3 and a commercially available antifungal agent, Diflucan, were tested using Candida albicans as test fungi in the same manner.

The subject of data set [2] is Aspergillus fumigatus. As to the kind of experiment: in vitro antifungal activity (MIC). The note with it: Table 2, Yeast Morphology Agar, 30° C. The class given is cell-based. How it is done: Using Candida albicans, Aspergillus niger, Aspergillus fumigatus, and Cryptococcus neoformans as test fungi, in vitro antifungal activities were determined to confirm the antifungal activities of cryptoporic acids A, B, and D. The test method and the results are shown below. The fungal strains used for this test were standard strains provided by Teikyo University, Institute of Medical Mycology. Drug sensitivity was measured using Yeast Morphology Agar (Difco) as media. The test fungi were spread over slant made of a potato dextrose agar medium (NissuiSeiyaku) and cultured at 30° C. for one day (Candida, Cryptococcus) or four days (Aspergillus niger, Aspergillus neoformans). After culturing, fungi on the slant were washed away with sterile physiological saline supplemented with 0.1% Tween 80. The solution was passed through a filter with 15 μm pores. The fungi were counted on a hemocytometer and adjusted to 10^5 CFU/ml to serve as an inoculation solution. A 0.02 ml portion of this solution was inoculated into Yeast Morphology Agar containing test agents by two-fold serial dilution and cultured at 30° C. for 1 or 4 days. Antifungal effect was judged with naked eyes. Concentrations at which evident inhibition of growth was observed compared with control media containing no drug were taken as MIC values. […]

In data set [3] the test system is Candida albicans. As to the kind of experiment: Infection-Treating Test, Candida albicans infected mice. The class given is in vivo, mice (ICR). The note with it: oral in sesame oil, first dose 1 hour after i.v. inoculation (1.0×10^6 CFU/mouse), once a day, total seven days, survival, Weil method. How it is done:
(§1) Candida albicans (1.0×10^6 CFU/mouse) or Aspergillus fumigatus (2.0×10^6 CFU/mouse) was suspended in physiological saline, and a 0.2 ml portion of each solution was injected into healthy grown mice (ICR, 4 week-old, female, 19-22 g, Nihon CLEA) via the caudal vein to establish infection. Cryptoporic acid H was dissolved in sesame oil in prescribed concentrations, and a 0.2 ml portion was orally administered per dose to the mice through a stomach probe. The first administration was conducted 1 hour after inoculation of fungi. Thereafter, administration was conducted six times (once a day every 24 hours; for a total of seven days). only the base (0.2 ml) was administered to the control group. Treatment effectiveness was evaluated with ED50 by using the Weil method from the survival rate of treated mice when all the control animals died.

For data set [4], the system named is Aspergillus fumigatus. Nature of the data set: Infection-Treating Test, Aspergillus fumigatus infected mice. Format: in vivo, mice (ICR). The settings on record: oral in sesame oil, first dose 1 hour after i.v. inoculation (2.0×10^6 CFU/mouse), once a day, total seven days, survival, Weil method. How it is done: as §1
A short description of data set [5]: Solubility. Format: physicochemical. The note with it: in methanol, acetone, and ethyl acetate.
[6] abbreviates: 24 h, Table 1, Yeast Morphology Agar, 30° C., 1 day, read-out: MIC (Candida albicans).

Take `C=C1CC[C@H]2C(C)(C)CCC[C@]2(C)[C@H]1COC(C(=O)OC)C(CC(=O)O)C(=O)OC` (stereo partly drawn) [Cryptoporic acid A]: the MIC in data set [1] (setting [6]) was 25 µg/mL (≈ 58.9 µM).

For the molecule `C=C1CC[C@H]2[C@](C)(CO)CCC[C@]2(C)[C@H]1COC(C(=O)OC)C(CC(=O)O)C(=O)OC` (stereo partly drawn) [Cryptoporic acid B], the MIC in data set [2] was 200 µg/mL (≈ 454 µM); in data set [1] (setting [6]), 25 µg/mL (≈ 56.7 µM).

Take `C=C1CCC2C3(C)CCCC2(C)C1COC(C(=O)OC)C(CC(=O)O)C(=O)OCC1(C)CCCC2(C)C(COC(C(=O)OC)C(CC(=O)O)C(=O)OC3)C(=C)CCC12` (stereo not drawn) [Cryptoporic acid D]: the MIC in data set [1] (setting [6]) came out at 100 µg/mL (≈ 122 µM).

Turning to `C=C1CC[C@H]2C(C)(C)CCC[C@]2(C)[C@H]1COC(C(=O)O)C(CC(=O)O)C(=O)O` (stereo partly drawn) [Cryptoporic acid H], the ED50 in data set [3] was 0.32 mg/kg; in data set [4] it was 2 mg/kg.

`OC(Cn1cncn1)(Cn1cncn1)c1ccc(F)cc1F` [Diflucan, reference compound] had an MIC in data set [1] (TIMM1623) of 25 µg/mL (≈ 81.6 µM).

`C=C1CC[C@H]2C(C)(C)CCC[C@]2(C)[C@H]1COC(C(=O)OC)C(CC(=O)O)C(=O)O[C@H]1CC(C)(C)[C@@H]2CC=C(C=O)[C@H](C=O)[C@@]2(C)C1` (stereo partly drawn) [TG 101]: the Solubility entry in data set [5] was “Easily soluble”.

For `C=C1CC[C@H]2C(C)(C)CCC[C@]2(C)[C@H]1COC(C(=O)OC)C(CC(=O)O)C(=O)O[C@H]1CC(C)(C)[C@@H]2CC=C3COC(O)[C@@H]3[C@@]2(C)C1` (stereo partly drawn) [TG 103], the Solubility entry in data set [5] was “Easily soluble”.
